Data taken from patent US7647217B2, “Structure of the farnesoid X receptor ligand binding domain and methods of use therefor” (The Salk Institute for Biological Studies, priority 2002, dated 2010).

Target: T1, GAL4-FXR LBD (Rattus norvegicus, UniProt Q62735)
T1 construct: expressed in transfected cells; host or cells: CV-1 (monkey)
T1 sequence (Q62735 245-469 limits assumed): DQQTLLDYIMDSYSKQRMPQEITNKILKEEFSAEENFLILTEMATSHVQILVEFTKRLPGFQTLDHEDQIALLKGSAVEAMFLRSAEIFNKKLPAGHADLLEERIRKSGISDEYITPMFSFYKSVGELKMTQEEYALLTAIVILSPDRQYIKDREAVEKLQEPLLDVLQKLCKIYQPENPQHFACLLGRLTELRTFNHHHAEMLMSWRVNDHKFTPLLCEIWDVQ
Experiment: GAL4 DBD-FXR LBD chimeric receptor transcriptional activation assay (with/without RXR)
Assay type: cell-based
Details: for activation of chimeric FXR construct: in the presence and absence of RXR; for selectivity for FXR relative to other NHRs: chimeric NHR constructs; for efficacy compared with GW4064: in the absence of RXR
Description: FIGS. 3A-3E collectively show the results of ligand activation of CV-1 cells co-transfected with a luciferase reporter gene with a variety of receptor expression constructs. […] FIGS. 3C-3E show the results of CV-1 cells transiently transfected with the indicated reporter constructs, treated with either DMSO or 10 μM of the compounds fexaramine (3C), fexarine (3D), fexarene (3E). Reporter activity was normalized to the internal control and the data plotted as fold activation relative to untreated cells. All transfections contained CMX-βgal as an internal control.
The expression plasmids pCMX, pCMX-LacZ, pCMX-mFXRFL, pCMX-hRXRFL, pCMX-GALDBD-rFXRLBD and other pCUX-GALDBD-NR LBDs (hRXRα, hPPARαγδ, mPXR, hPXR, hLXRα, HTRβ, hRARβ, mCAR, mERR3 and hVDR) have been described elsewhere (Blumberg et al. (1998). SXR, a novel steroid and xenobiotic-sensing nuclear receptor. Genes Dev. 12(20), 3195-205). The reporter plasmids pMH2004-TK-luc, pTKECRE*6-luc, pTKER-8*2-luc and pMRP-2-luc also have been described elsewhere. The hPLTP-luc promoter was kindly provided by Dr Dennis Dowhan and the hIBABP-luc promoter was created from a plasmid provided by Dr Philippe Besnard.
For transfection of these constructs, monkey CV-1 HEPG2 and HEK293T cells were grown in DMEM supplemented with 10% FBS, 50 U/ml penicillin G, and 50 μg/ml streptomycin sulfate at 37° C. in 7% CO2. CV-1 cells (60%-70% confluence, 48-well plate) were cotransfected with 16.6 ng of the appropriate expression vector, 100 ng of reporter plasmid, and 100 ng of pCMX-LacZ in 200 μl of DMEM containing 10% FBS by the N-[1-(2,3-dioleoyloxy)propyl]-N,N,N-trimethylammonium methylsulfate (DOTAP)-mediated procedure. After 24 hr, the medium was replaced, and cells were harvested and assayed for luciferase activity 36-48 hr after transfection. The luciferase activity was normalized to the level of β-galactosidase activity. Each transfection was performed in triplicate and repeated at least three times.
Cell-based transcriptional activation assays using chimeric nuclear hormone receptor (NHR) constructs were established to measure the selectivity of the compounds to FXR relative to other NHRs (Forman et al. (1995). Identification of a nuclear receptor that is activated by farnesol metabolites. Cell 81, 687-693). These assays used fusion proteins with the yeast GAL4 DNA binding domain connected to the ligand-binding domain (LBD) of NHRs. These constructs were co-transfected with a thymidine kinase C minimal promoter reporter vector containing four copies of the GAL4 binding site. Titration experiments were then performed using the identified compounds. […] Addition of RXR had no effect on the activation potential of fexaramine, fexarine, fexarene in this assay.

CC(C)c1onc(-c2c(Cl)cccc2Cl)c1COc1ccc(/C=C/c2cccc(C(=O)O)c2)c(Cl)c1 [GW4064, reference compound]
activation of chimeric FXR construct: activate

COC(=O)/C=C/c1cccc(N(Cc2ccc(-c3ccccc3OC)cc2)C(=O)C(C)C)c1 [SRI-1]
activation of chimeric FXR construct: little or no activity

COC(=O)/C=C/c1cccc(N(Cc2ccc(-c3ccc(C(C)(C)C)cc3)cc2)C(=O)C(C)C)c1 [SRI-2]
activation of chimeric FXR construct: little or no activity

COC(=O)/C=C/c1cccc(N(Cc2ccc(-c3ccc(N(C)C)cc3)cc2)C(=O)C2CCCCC2)c1 [fexaramine]
effect of addition of RXR on activation potential: no effect | selectivity for FXR relative to other NHRs: highly selective for FXR | efficacy compared with GW4064: more efficacious ligands for FXR than GW4064 | activation of chimeric FXR construct: activate

COC(=O)/C=C/c1cccc(N(Cc2ccc(/C=C/c3ccccc3)cc2)C(=O)C2CCCCC2)c1 [fexarene]
effect of addition of RXR on activation potential: no effect | selectivity for FXR relative to other NHRs: highly selective for FXR | efficacy compared with GW4064: more efficacious ligands for FXR than GW4064 | activation of chimeric FXR construct: activate

COC(=O)/C=C/c1cccc(N(Cc2ccc(-c3ccc4c(c3)OCO4)cc2)C(=O)C2CCCCC2)c1 [fexarine]
effect of addition of RXR on activation potential: no effect | selectivity for FXR relative to other NHRs: highly selective for FXR | efficacy compared with GW4064: more efficacious ligands for FXR than GW4064 | activation of chimeric FXR construct: activate
